Assay results taken from patent US7816074B2, “α4 β2 δGABA-A receptors as a strategy for PMS and alcoholism” (priority 2003, dated 2010).

Key:
[1] = test system: female Long Evans rats; assay: Acoustic startle response (ASR); type: in vivo, rat; details: for decrease of peak ASR: diestrous and sham controls
Method: Animals were tested in a stabilimeter device (SR-Lab Startle Response System, San Diego Instruments, Inc., San Diego, Calif.) that permits vertical movement of a Plexiglas platform contained within a lit, well-ventilated sound-attenuating chamber (26). The amplitude of movement is detected by a piezoelectric device with a voltage output proportional to platform displacement. The analog output of the accelerometer is then amplified and digitized before computer analysis. Five minutes after i.p. administration of 10% ethanol (0.05-1.6 g/kg) or saline vehicle (1.5 ml volume) or 25 minutes after 4,5,6,7-tetrahydroisoxazolo[5,4-c]pyridin-3-ol injection (3 mg/kg, i.p.), animals were placed in the chamber for a 5 minutes acclimation period. […] Four acoustic stimuli (116 dB, 40 ms duration) were then presented at random intervals once every 10-15 seconds via a white-noise generator through speakers positioned on either side of the cage. […] For each acoustic stimulus, the amplitude and integrated response (amplitude and duration) were determined and normalized to the weight of the animal. Values for the integrated response after administration of each dose of ethanol or 4,5,6,7-tetrahydroisoxazolo[5,4-c]pyridin-3-ol were averaged and expressed as a fraction of the saline control average for the indicated treatment (progesterone withdrawal versus control) group in order to minimize variability between groups. […] It is also routinely used to assess behavioral excitability after withdrawal from BDZs and ethanol (73).
Animals were tested in a stabilimeter device (SR-Lab Startle Response System, San Diego Instruments, Inc.) that permitted vertical movement of a Plexiglas cage contained within a lit, well-ventilated, sound-attenuating chamber. The amplitude of movement was detected by a piezoelectric device with a voltage output proportional to cage displacement. The analog output of the accelerometer was amplified and digitized before computer analysis (15). Five minutes following intraperitoneal administration of alcohol (0.2 or 0.4 g/kg) or saline vehicle (1.5 ml volume), animals were placed in the chamber for 5 a minute acclimation period. Five acoustic stimuli (116 dB, 40 msec duration) were then presented once every 10-15 seconds via a white-noise generator through speakers positioned on either side of the cage. For each acoustic stimulus, the integrated response (amplitude and duration) was averaged across a 100 msec post-stimulus time period and the response latency determined. Both values were normalized to the weight of the animal. Values for the integrated response for the first noise stimulus following administration of each dose of alcohol were averaged and expressed as a fraction of the saline control average for the indicated treatment (P Wd versus control) group. […] It is routinely used to assess behavioral excitability following withdrawal from benzodiazepiness (48) and alcohol (73), and is known to be modified by GABA modulators, such as diazepam (11), and by local infusion of excitatory compounds into dorsal hippocampus (85).

[2] = test system: female Long Evans rats; assay: Elevated plus maze; details: ethanol 0.5 g/kg
Method: Adult, female Long Evans rats (200-250 grams at the time of testing) were used in the following example. Animals were housed in pairs under controlled conditions (14:10 light:dark cycle, 24° C.) with free access to food and water. Progesterone (P, Sigma, crystalline)-filled capsules of silicone tubing (Nalgene Co. 1/16″×⅛″ o.d., 10 mm/100 g body weight) were implanted subcutaneously in the lower back after induction of halothane anesthesia (3-6% in O2, 1 liter/minutes) in the experimental animals. […] Capsules were removed under halothane anesthesia after a 21-day P administration period, and animals tested 24 hours after the last injection (“P withdrawal”). Control animals were tested on the day of diestrus, also referred to as diestrus controls, a low hormone state, as determined by vaginal lavage. […] All animals were tested between 0730 and 1100 hour. Euthanasia was either by decapitation in the electrophysiology experiments or CO2 inhalation for the behavioral experiments following the indicated protocols.
This device consists of four 10×50 cm arms at 90° angles, with two arms enclosed by 40 cm walls, and two open arms, all elevated 50 cm above the floor. The open arms are also partially bordered by small rails extending to the proximal half of the arm, and the floor of the maze is marked with grid lines every 25 cm. […] Both number of entries and duration of time spent in the open and closed arms were tabulated, as were the total arm entries, a measure of general activity level. To be considered an open arm entry, the animal had to cross the line of the open platform with all four paws. An increase in open arm entries or time spent in the open arm versus the total time is considered to be a measure of decreased anxiety, (25).

[3] = molecular target: T1, α1β2 receptors (Rattus norvegicus, UniProt P62813+P63138); assay: Two-electrode voltage-clamp of recombinant GABAA receptors in oocytes; type: cell-based, expressed in Xenopus laevis oocytes; details: oocytes injected with α1+β2
T1 construct: expressed in transfected cells; host or cells: oocytes injected with cRNA (Xenopus laevis is named only)
T1 sequence (P62813 28-455): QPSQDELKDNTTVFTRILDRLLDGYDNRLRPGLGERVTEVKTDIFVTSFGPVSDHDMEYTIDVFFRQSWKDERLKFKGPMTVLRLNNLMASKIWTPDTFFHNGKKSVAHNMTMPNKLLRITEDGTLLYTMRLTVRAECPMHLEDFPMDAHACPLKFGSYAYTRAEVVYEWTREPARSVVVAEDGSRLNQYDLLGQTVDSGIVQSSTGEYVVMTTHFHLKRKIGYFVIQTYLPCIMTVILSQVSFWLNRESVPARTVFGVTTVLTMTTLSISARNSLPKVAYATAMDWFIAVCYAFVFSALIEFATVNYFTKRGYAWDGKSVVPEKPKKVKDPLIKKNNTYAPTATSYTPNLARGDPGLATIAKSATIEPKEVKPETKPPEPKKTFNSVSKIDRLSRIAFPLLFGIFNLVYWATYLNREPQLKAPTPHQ
T1 sequence (P63138 25-474 limits assumed): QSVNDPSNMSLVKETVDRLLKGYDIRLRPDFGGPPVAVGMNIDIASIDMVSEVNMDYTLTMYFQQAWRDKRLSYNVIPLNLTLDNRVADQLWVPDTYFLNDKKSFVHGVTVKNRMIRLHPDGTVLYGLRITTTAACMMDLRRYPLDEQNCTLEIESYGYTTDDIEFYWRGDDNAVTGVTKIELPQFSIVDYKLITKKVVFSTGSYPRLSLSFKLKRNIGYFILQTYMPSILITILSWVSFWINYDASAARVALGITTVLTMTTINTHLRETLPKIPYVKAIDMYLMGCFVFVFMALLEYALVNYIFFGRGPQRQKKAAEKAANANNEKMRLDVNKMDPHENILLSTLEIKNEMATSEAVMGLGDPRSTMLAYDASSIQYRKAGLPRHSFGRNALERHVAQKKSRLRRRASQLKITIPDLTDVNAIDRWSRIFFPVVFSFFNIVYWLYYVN
Text: (§1) Plasmids with inserts encoding GABAA receptor subunit sequence for rat α1 (62), rat β2 (83), rat α2 (62), rat α5 (62), mouse α4 (37), mouse β3 (82), rat β1 (83), rat γ2S (63), human δ (12), and human ε (11) were produced by subcloning each separately into an appropriate cloning vehicle such as PCDM8, pCDNA3.1 or pGHEMHE vectors (Invitrogen, Carlsbad Calif.) using a T7 promoter and standard subcloning techniques (59). Plasmids were linearized with an appropriate restriction enzyme at a site 3′ to the insert and cRNAs were synthesized using T3 or T7 polymerase (mMessage mMachine, Ambion, Tex.). The size of the cRNA was verified and RNA was quantified by ethidium bromide staining after electrophoresis on 1% agarose gels.
(§2) The preparation, injection, and maintenance of oocytes were carried out as described previously (78). […]
(§3) Voltage-clamp recording was carried out 1 to 3 days after injection of cRNAs. […] Oocytes were voltage-clamped at −70 mV and macroscopic currents were recorded with a two-electrode voltage-clamp using a Warner Instruments OC-725 amplifier as described previously (79). Currents were recorded on a chart recorder or by using Axograph on a Macintosh computer. […]

[4] = molecular target: α1β1 receptors / oocytes injected with α1+β1+δ (Rattus norvegicus, UniProt P15431+P62813); details: 1 mM alcohol
α1β1 receptors / oocytes injected with α1+β1+δ, sequence (P62813 28-455): as the sequence (P62813 28-455) above
α1β1 receptors / oocytes injected with α1+β1+δ, sequence (P15431 26-474): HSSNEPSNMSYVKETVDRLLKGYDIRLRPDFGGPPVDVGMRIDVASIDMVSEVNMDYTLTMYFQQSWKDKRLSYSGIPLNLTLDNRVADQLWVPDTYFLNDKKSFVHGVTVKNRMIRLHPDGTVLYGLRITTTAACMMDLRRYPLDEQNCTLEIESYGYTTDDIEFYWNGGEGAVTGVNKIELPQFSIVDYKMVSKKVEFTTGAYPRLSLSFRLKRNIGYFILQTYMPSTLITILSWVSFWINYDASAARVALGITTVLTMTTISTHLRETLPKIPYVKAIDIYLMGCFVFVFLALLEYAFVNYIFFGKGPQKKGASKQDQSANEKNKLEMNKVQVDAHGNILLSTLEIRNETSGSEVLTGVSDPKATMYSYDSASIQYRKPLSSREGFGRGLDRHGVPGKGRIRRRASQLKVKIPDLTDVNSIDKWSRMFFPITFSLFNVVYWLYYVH
Text: as §1, §2, §3

For `CCO` [ethanol], the “effect on acoustic startle response” value ([1]; alcohol 0.2-0.4 g/kg in vivo, after progesterone withdrawal (Example III)) was “decreased the acoustic startle response”, the “effect on ASR” value ([1]; ethanol 0.05 g/kg i.p., P withdrawal and diestrous control animals) was “equally ineffective” and the “attenuation of average peak and integrated startle responses” value ([1]; ethanol 0.2-0.4 g/kg i.p., after P withdrawal) was “about 70%”. The “attenuation of startle responses” value ([1]; ethanol 0.2-0.4 g/kg i.p., diestrous and sham control animals) was “not observed”, the “decrease of peak ASR” value ([1]; ethanol 0.2 g/kg) was “ineffective” and the “effect on ASR” value ([1]; ethanol 0.8-1.2 g/kg i.p., P withdrawn animals) was “ineffective”. The “effect on ASR” value ([1]; ethanol 0.8-1.2 g/kg i.p., both control groups) was “significantly decreased”, the “decrease of peak ASR” value ([1]; ethanol 0.8 g/kg) was “effective” and the “effect on ASR” value ([1]; ethanol 1.6 g/kg i.p., P withdrawal and diestrous control animals) was “decreased the ASR”. For the same molecule, the “% open arm entries, P withdrawn greater than control animals after ethanol” value [2] was 50%, the “time in the open arm, P withdrawn relative to control animals after ethanol” value [2] was 3 fold and the “increase of % of open arm entries compared to vehicle” value ([2]; P withdrawn animals) was 7 fold. For the same molecule, the “increase of time in the open arm compared to vehicle” value ([2]; P withdrawn animals) was “more than 20 fold”, the “effect on open arm time and % open arm entries” value ([2]; control animals) was “no significant effect” and the “locomotor activity (total number of arm entries)” value ([2]; either group) was “not significantly altered”. For the same molecule, the “responses to GABA in presence of alcohol, % of control” value [3] was 88-95 % of control and the “effect on GABA responses” value [4] was “not altered”.
